US9322066B2, “Predictors for cancer treatment” (priority 2011, dated 2016)

Tested on: relapsed or refractory, rituximab-naive or -sensitive follicular B-cell NHL
Assay: Time to next anti-lymphoma therapy, Vc-R vs rituximab study, by biomarker
Type: in vivo, human
Design: Median, Time to Next Anti-Lymphoma Therapy / Time to Next Anti-Lymphoma Therapy, Median: unit not given here
Source text: Non-Hodgkin lymphoma (NHL) encompasses several unique malignant lymphoid disease entities that vary in clinical behavior, morphologic appearance, immunologic, and molecular phenotype. […] A randomized, open-label, active-controlled, multicenter, multinational, prospective study to compare the efficacy and safety of the combination of bortezomib and rituximab (Vc-R) to single-agent rituximab in subjects who have relapsed or refractory, rituximab-naive or -sensitive follicular B-cell NHL was performed.
Subjects were centrally randomized to Treatment Groups A (Vc-R) or B (rituximab) in a 1:1 ratio taking into account the following stratification factors: • Follicular Lymphoma International Prognostic Index (FLIPI) score (low [0 or 1 factor], intermediate [2 factors], high [≧3 factors]); • Prior rituximab therapy (yes, no); • Time since last dose of anti-lymphoma therapy (≦1 year, >1 year); • Region (United States/Canada, European Union, Rest of World).
The following clinical endpoints were included in the analysis within each treatment group and an overall comparison was made with the biomarker-related endpoints: Progression-free survival, defined as the interval between the date of randomization and the date of progressive disease (PD) or death, whichever is first reported in the ITT population; overall survival; overall response rate (complete response [CR]+CR unconfirmed [CRu]+partial response [PR]); overall CR rate (CR+CRu); duration of response; time to next anti-lymphoma therapy; and treatment free interval.

[1] = PSMB1/A171S: G/G, >1 year since last anti-lymphoma treatment
[2] = PSMB1/A171S: G/G, Ann Arbor Stage IV
[3] = PSMB1/A171S: G/G, European Union
[4] = PSMB1/A171S: G/G, High Tumor Burden
[5] = PSMB1/A171S: G/G, ≦65 years old
[6] = PSMB1/I208N: T/T, >1 year since last anti-lymphoma treatment
[7] = PSMB1/I208N: T/T, Ann Arbor Stage IV
[8] = PSMB1/I208N: T/T, European Union
[9] = PSMB1/I208N: T/T, High Tumor Burden
[10] = PSMB1/I208N: T/T, ≦65 years old
[11] = PSMB1/P11A: C/G, European Union
[12] = PSMB1/P11A: C/G, High Tumor Burden
[13] = PSMB1/P11A: G/G, >1 year since last anti-lymphoma treatment
[14] = PSMB1/P193L: C/C, >1 year since last anti-lymphoma treatment
[15] = PSMB1/P193L: C/C, Ann Arbor Stage IV
[16] = PSMB1/P193L: C/C, European Union
[17] = PSMB1/P193L: C/C, High Tumor Burden
[18] = PSMB1/P193L: C/C, ≦65 years old
[19] = PSMB2/E49X: G/G, >1 year since last anti-lymphoma treatment
[20] = PSMB2/E49X: G/G, Ann Arbor Stage IV
[21] = PSMB2/E49X: G/G, European Union
[22] = PSMB2/E49X: G/G, High Tumor Burden
[23] = PSMB2/G187V: G/G, >1 year since last anti-lymphoma treatment
[24] = PSMB2/G187V: G/G, Ann Arbor Stage IV
[25] = PSMB2/G187V: G/G, European Union
[26] = PSMB2/G187V: G/G, High Tumor Burden
[27] = PSMB2/G187V: G/G, ≦65 years old
[28] = PSMB2/L159F: C/C, >1 year since last anti-lymphoma treatment
[29] = PSMB2/L159F: C/C, Ann Arbor Stage IV
[30] = PSMB2/L159F: C/C, European Union
[31] = PSMB2/L159F: C/C, High Tumor Burden
[32] = PSMB2/L159F: C/C, ≦65 years old
[33] = PSMB5/L206M: C/C, >1 year since last anti-lymphoma treatment
[34] = PSMB5/L206M: C/C, Ann Arbor Stage IV

rituximab
Median, Time to Next Anti-Lymphoma Therapy (P65 INTENSITY CYTOPLASMIC SIGNAL: ≧2+, ≦65 years old, IRC Review): 484 | Time to Next Anti-Lymphoma Therapy, Evt/N [1]: 98/165 | Time to Next Anti-Lymphoma Therapy, Median [1]: 688 | Time to Next Anti-Lymphoma Therapy, Evt/N [2]: 86/127 | Time to Next Anti-Lymphoma Therapy, Median [2]: 457 | Time to Next Anti-Lymphoma Therapy, Evt/N [3]: 75/119 | Time to Next Anti-Lymphoma Therapy, Median [3]: 675 | Time to Next Anti-Lymphoma Therapy, Evt/N [4]: 108/147 | Time to Next Anti-Lymphoma Therapy, Median [4]: 396 | Time to Next Anti-Lymphoma Therapy, Evt/N [5]: 130/198 | Time to Next Anti-Lymphoma Therapy, Median [5]: 489 | Time to Next Anti-Lymphoma Therapy, Evt/N [6]: 98/165 | Time to Next Anti-Lymphoma Therapy, Median [6]: 688 | Time to Next Anti-Lymphoma Therapy, Evt/N [7]: 86/127 | Time to Next Anti-Lymphoma Therapy, Median [7]: 457 | Time to Next Anti-Lymphoma Therapy, Evt/N [8]: 75/119 | Time to Next Anti-Lymphoma Therapy, Median [8]: 675 | Time to Next Anti-Lymphoma Therapy, Evt/N [9]: 108/147 | Time to Next Anti-Lymphoma Therapy, Median [9]: 396 | Time to Next Anti-Lymphoma Therapy, Evt/N (PSMB1/I208N: T/T, No Subgroup): 173/276 | Time to Next Anti-Lymphoma Therapy, Median (PSMB1/I208N: T/T, No Subgroup): 546 | Time to Next Anti-Lymphoma Therapy, Evt/N [10]: 130/198 | Time to Next Anti-Lymphoma Therapy, Median [10]: 489 | Time to Next Anti-Lymphoma Therapy, Evt/N [11]: 34/49 | Time to Next Anti-Lymphoma Therapy, Median [11]: 462 | Time to Next Anti-Lymphoma Therapy, Evt/N (PSMB1/P11A: C/G, Female): 42/75 | Time to Next Anti-Lymphoma Therapy, Median (PSMB1/P11A: C/G, Female): 546 | Time to Next Anti-Lymphoma Therapy, Evt/N [12]: 49/72 | Time to Next Anti-Lymphoma Therapy, Median [12]: 358 | Time to Next Anti-Lymphoma Therapy, Evt/N (PSMB1/P11A: C/G, No Subgroup): 78/127 | Time to Next Anti-Lymphoma Therapy, Median (PSMB1/P11A: C/G, No Subgroup): 550 | Time to Next Anti-Lymphoma Therapy, Evt/N (PSMB1/P11A: C/G, Other): 2/3 | Time to Next Anti-Lymphoma Therapy, Median (PSMB1/P11A: C/G, Other): 164 | Time to Next Anti-Lymphoma Therapy, Evt/N (PSMB1/P11A: C/G, White): 67/111 | Time to Next Anti-Lymphoma Therapy, Median (PSMB1/P11A: C/G, White): 581 | Time to Next Anti-Lymphoma Therapy, Evt/N (PSMB1/P11A: C/G, ≦65 years old): 63/96 | Time to Next Anti-Lymphoma Therapy, Median (PSMB1/P11A: C/G, ≦65 years old): 546 | Time to Next Anti-Lymphoma Therapy, Evt/N [13]: 17/20 | Time to Next Anti-Lymphoma Therapy, Median [13]: 429 | Time to Next Anti-Lymphoma Therapy, Evt/N (PSMB1/P11A: G/G, Male): 17/19 | Time to Next Anti-Lymphoma Therapy, Median (PSMB1/P11A: G/G, Male): 421 | Time to Next Anti-Lymphoma Therapy, Evt/N (PSMB1/P11A: G/G, No Subgroup): 30/37 | Time to Next Anti-Lymphoma Therapy, Median (PSMB1/P11A: G/G, No Subgroup): 436 | Time to Next Anti-Lymphoma Therapy, Evt/N (PSMB1/P11A: G/G, White): 27/32 | Time to Next Anti-Lymphoma Therapy, Median (PSMB1/P11A: G/G, White): 421 | Time to Next Anti-Lymphoma Therapy, Evt/N (PSMB1/P11A: G/G, ≦65 years old): 21/25 | Time to Next Anti-Lymphoma Therapy, Median (PSMB1/P11A: G/G, ≦65 years old): 409 | Time to Next Anti-Lymphoma Therapy, Evt/N [14]: 98/165 | Time to Next Anti-Lymphoma Therapy, Median [14]: 688 | Time to Next Anti-Lymphoma Therapy, Evt/N [15]: 86/127 | Time to Next Anti-Lymphoma Therapy, Median [15]: 457 | Time to Next Anti-Lymphoma Therapy, Evt/N [16]: 75/119 | Time to Next Anti-Lymphoma Therapy, Median [16]: 675 | Time to Next Anti-Lymphoma Therapy, Evt/N [17]: 108/147 | Time to Next Anti-Lymphoma Therapy, Median [17]: 396 | Time to Next Anti-Lymphoma Therapy, Evt/N (PSMB1/P193L: C/C, No Subgroup): 173/276 | Time to Next Anti-Lymphoma Therapy, Median (PSMB1/P193L: C/C, No Subgroup): 546 | Time to Next Anti-Lymphoma Therapy, Evt/N [18]: 130/198 | Time to Next Anti-Lymphoma Therapy, Median [18]: 489 | Time to Next Anti-Lymphoma Therapy, Evt/N [19]: 98/165 | Time to Next Anti-Lymphoma Therapy, Median [19]: 688 | Time to Next Anti-Lymphoma Therapy, Evt/N [20]: 86/127 | Time to Next Anti-Lymphoma Therapy, Median [20]: 457 | Time to Next Anti-Lymphoma Therapy, Evt/N [21]: 75/119 | Time to Next Anti-Lymphoma Therapy, Median [21]: 675 | Time to Next Anti-Lymphoma Therapy, Evt/N [22]: 108/147 | Time to Next Anti-Lymphoma Therapy, Median [22]: 396 | Time to Next Anti-Lymphoma Therapy, Evt/N (PSMB2/E49X: G/G, No Subgroup): 173/276 | Time to Next Anti-Lymphoma Therapy, Median (PSMB2/E49X: G/G, No Subgroup): 546 | Time to Next Anti-Lymphoma Therapy, Evt/N (PSMB2/E49X: G/G, ≦65 years old): 130/198 | Time to Next Anti-Lymphoma Therapy, Median (PSMB2/E49X: G/G, ≦65 years old): 489 | Time to Next Anti-Lymphoma Therapy, Evt/N [23]: 98/165 | Time to Next Anti-Lymphoma Therapy, Median [23]: 688 | Time to Next Anti-Lymphoma Therapy, Evt/N [24]: 86/127 | Time to Next Anti-Lymphoma Therapy, Median [24]: 457 | Time to Next Anti-Lymphoma Therapy, Evt/N [25]: 75/119 | Time to Next Anti-Lymphoma Therapy, Median [25]: 675 | Time to Next Anti-Lymphoma Therapy, Evt/N [26]: 108/147 | Time to Next Anti-Lymphoma Therapy, Median [26]: 396 | Time to Next Anti-Lymphoma Therapy, Evt/N (PSMB2/G187V: G/G, No Subgroup): 173/276 | Time to Next Anti-Lymphoma Therapy, Median (PSMB2/G187V: G/G, No Subgroup): 546 | Time to Next Anti-Lymphoma Therapy, Evt/N [27]: 130/198 | Time to Next Anti-Lymphoma Therapy, Median [27]: 489 | Time to Next Anti-Lymphoma Therapy, Evt/N [28]: 98/165 | Time to Next Anti-Lymphoma Therapy, Median [28]: 688 | Time to Next Anti-Lymphoma Therapy, Evt/N [29]: 86/127 | Time to Next Anti-Lymphoma Therapy, Median [29]: 457 | Time to Next Anti-Lymphoma Therapy, Evt/N [30]: 75/119 | Time to Next Anti-Lymphoma Therapy, Median [30]: 675 | Time to Next Anti-Lymphoma Therapy, Evt/N [31]: 108/147 | Time to Next Anti-Lymphoma Therapy, Median [31]: 396 | Time to Next Anti-Lymphoma Therapy, Evt/N (PSMB2/L159F: C/C, No Subgroup): 173/276 | Time to Next Anti-Lymphoma Therapy, Median (PSMB2/L159F: C/C, No Subgroup): 546 | Time to Next Anti-Lymphoma Therapy, Evt/N [32]: 130/198 | Time to Next Anti-Lymphoma Therapy, Median [32]: 489 | Time to Next Anti-Lymphoma Therapy, Evt/N [33]: 98/165 | Time to Next Anti-Lymphoma Therapy, Median [33]: 688 | Time to Next Anti-Lymphoma Therapy, Evt/N [34]: 86/127 | Time to Next Anti-Lymphoma Therapy, Median [34]: 457 | Time to Next Anti-Lymphoma Therapy, Evt/N (PSMB5/L206M: C/C, European Union): 75/119
